Experimental findings from patent US20240116928A1 (Gilead Sciences, Inc., priority 2022, published 2024) are described below.

Test [1] addresses T1, CD73 (Homo sapiens, UniProt P21589).
T1 sequence (P21589 27-549): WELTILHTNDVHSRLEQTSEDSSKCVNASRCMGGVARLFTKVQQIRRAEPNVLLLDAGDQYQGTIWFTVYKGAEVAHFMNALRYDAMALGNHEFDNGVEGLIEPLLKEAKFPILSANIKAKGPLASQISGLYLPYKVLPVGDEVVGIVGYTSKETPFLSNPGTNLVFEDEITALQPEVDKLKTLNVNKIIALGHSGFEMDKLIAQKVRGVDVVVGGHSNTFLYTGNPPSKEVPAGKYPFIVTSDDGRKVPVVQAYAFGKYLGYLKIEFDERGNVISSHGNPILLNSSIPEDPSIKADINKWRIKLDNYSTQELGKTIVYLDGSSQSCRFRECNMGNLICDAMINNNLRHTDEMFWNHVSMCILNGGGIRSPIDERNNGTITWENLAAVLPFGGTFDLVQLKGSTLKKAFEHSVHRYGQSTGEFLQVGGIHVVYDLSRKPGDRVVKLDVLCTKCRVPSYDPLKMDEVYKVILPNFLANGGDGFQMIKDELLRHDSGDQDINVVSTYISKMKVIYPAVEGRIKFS
In words: CD73 Biochemical IC50 Assay. To be noted: CD73 enzyme (R&D system) final 0.3 nM, final AMP 15 uM, 60 mins incubation, Rapid fire. The procedure: CD73 Biochemical IC50 Assay
Compound serial dilutions were pre-spotted into Thermo Nunc assay plate. 50 μL CD73 enzyme buffer (CD73 purchased from R&D system=0.6 nM, 25 mM Tris, pH 7.4, 5 mM MgCl2, 1 mM NaH2PO4) was added into the assay plate and incubated for 15 mins. […] After incubation for 60 mins, the supernatant 20 uL was transferred into 384-well NUNC plate pre-filled with 60 ul Quench buffer (80% organic and 20% water+0.1% FA) with internal standard. The plate was spun down at 4500 rpm for 20 mins, then 20 μl of supernatant was transferred to another Nunc plate prefilled with 80 μl of water. The samples were run using Rapid fire.

The target in test [2] is T1, CD73. In words: MDA-MB-231 Cell Based CD73 Activity Assay (DMEM). The arrangement: endogenous in cells; host or cells: MDA-MB-231-GFP. To be noted: MDA-MB-231-GFP cells, DMEM with 10% human plasma, overnight compound treatment, 200 uM AMP, 100 mins. The procedure:
Cells were plated into assay plate with compounds pre-spotted, for an overnight compound treatment. 50 uL of 400 uM AMP (final concentration will be 200 uM) was added using Bio-tek dispenser. Plates were incubated for 100 mins. 20 uL of supernatant was transferred into 384-well NUNC plate pre-filled with 60 ul Quench buffer (80% organic and 20% water+0.1% FA) with internal standard. The plates were spun down at 4500 rpm for 20 mins, then 20 ul of supernatant was transferred to another Nunc plate prefilled with 80 ul of water. The samples were analyzed using Rapid fire.

One may read the IC50 as the point on the concentration scale where inhibition reaches its midpoint. High values mean a need for much substance, low ones inhibition by little substance. The EC50 is the concentration giving half of the maximal effect. Read a low EC50 as an effect from little substance. Consider `Cc1nc(-c2c[nH]c(=O)[nH]c2=O)cc(N2C[C@H](Oc3cc4c(cn3)c(C)nn4CC(F)(F)F)C(F)(F)C2)n1` [Example 28, (S)-6-(3,3-difluoro-4-((3-methyl-1-(2,2,2-trifluoroethyl)-1H-pyrazolo[4,3-c]pyridin-6-yl)oxy)pyrrolidin-1-yl)-2-methyl-[4,5′-bipyrimidine]-2′,4′ (1′H,3′H)-dione], for which it took 7.16 nM to reach half-maximal inhibition on CD73 [1] (IC50). This molecule also displayed an EC50 at CD73 [2] of 6.38 nM.

Turning to `Cc1nc(-c2c[nH]c(=O)[nH]c2=O)cc(N2C[C@H](OC(=O)NC(C)C)C(F)(F)C2)n1` [Example 29, (S)-4,4-difluoro-1-(2-methyl-2′,4′-dioxo-1′,2′,3′,4′-tetrahydro-[4,5′-bipyrimidin]-6-yl)pyrrolidin-3-yl isopropylcarbamate], half-maximal inhibition on CD73 [1] (IC50) was put at 13.1 nM. For the same molecule, at CD73 [2], the EC50 is above 50 nM.

`Cc1nc(-c2c[nH]c(=O)[nH]c2=O)cc(N2C[C@H](OC(=O)NC3(C(F)(F)F)CC3)C(F)(F)C2)n1` [Example 30, (S)-4,4-difluoro-1-(2-methyl-2′,4′-dioxo-1′,2′,3′,4′-tetrahydro-[4,5′-bipyrimidin]-6-yl)pyrrolidin-3-yl (1-(trifluoromethyl)cyclopropyl)carbamate] yielded an IC50 against CD73 [1] of 13 nM. At CD73 [2], this molecule came in with an EC50 of 34.8 nM.
